Assay [1] has as its target T1, TdT (Bos taurus, UniProt P06526).
T1 construct: purchased New England Biolab (Ipswich, MA)
Nature of the assay: TdT incorporation assay (extension of 21-nt oligonucleotide, denaturing TBE-Urea gel). It is filed as biochemical. The note with it: for yield of 22-nt oligo (+1 product) / yield of 23-nt oligo (+2 product) / yield of 24-nt oligo (+3 product): 40 μM nucleotide. The procedure: DNA oligonucleotide sequence used for primer extension assays is: ATTCAGGACGAGCCTCAGACC (SEQ ID NO: 1)
[…] The solution was then heated at 95° C. for 5 minutes to inactivate TdT. UV cleavage of the photolabile group was done using an 8 W UV lamp at 365 nm for 10 minutes.
(§1) Initrogen (Carlsbad, California) Novex™ TBE-Urea gel (15%) was pre-washed with 1×TBE running buffer to remove excess urea. Oligonucleotide samples (5 μL) were mixed with Novex™ TBE-Urea Sample Buffer (2×, 5 μL). The mixture was then heated at 95° C. for 5 minutes and loaded to the gel. Gels were run in a 1×TBE running buffer at up to 240 V until the bromophenol blue reached the bottom of the gel. The gel was then visualized using Gel Doc XR+ and analyzed using the gel analysis tool in the Bio-Rad (Hercules, California) Image Lab software.

Assay [2] relates to TdT. The note with it: cited from earlier work.
In assay [3] the target is T1, TdT. Description: 2 cycle incorporation and deprotection. Particulars: nucleotide 20 μM, 7 minutes at 37° C., 8 W UV lamp at 365 nm for 10 minutes per cycle (FIG. 5). It is filed as biochemical. The method, then:
A 6-fluorescein-tagged 21-nt oligonucleotide (200 nM), 1× TdT buffer (NEB), TdT (2 U μL^−1) CoCl2 (NEB, 0.25 mM) and nucleotide (20 μM) in 500 μL solution was incubated at 37° C. for 7 minutes and quenched with EDTA (50 μL, 500 mM). The solution was concentrated using MilliporeSigma (Burlington, Massachusetts) Amicon Ultra-0.5 mL Centrifugal Filters (3 kDa) to a final volume of 30 μL. Sodium Acetate solution (10 μL, 3M, pH 5.0) was added to the concentrated solution and further purified using Zymo (Irvine, California) DNA Clean & Concentrator. UV cleavage of the photolabile group was done using an 8 W UV lamp at 365 nm for 10 minutes. The steps were then repeated to give the second incorporation.
as §1

The mark [4] stands for this setting: 200 nM 21-nt oligonucleotide, 1 U μL^−1 TdT, 15 minutes.

T1 sequence (P06526 whole entry): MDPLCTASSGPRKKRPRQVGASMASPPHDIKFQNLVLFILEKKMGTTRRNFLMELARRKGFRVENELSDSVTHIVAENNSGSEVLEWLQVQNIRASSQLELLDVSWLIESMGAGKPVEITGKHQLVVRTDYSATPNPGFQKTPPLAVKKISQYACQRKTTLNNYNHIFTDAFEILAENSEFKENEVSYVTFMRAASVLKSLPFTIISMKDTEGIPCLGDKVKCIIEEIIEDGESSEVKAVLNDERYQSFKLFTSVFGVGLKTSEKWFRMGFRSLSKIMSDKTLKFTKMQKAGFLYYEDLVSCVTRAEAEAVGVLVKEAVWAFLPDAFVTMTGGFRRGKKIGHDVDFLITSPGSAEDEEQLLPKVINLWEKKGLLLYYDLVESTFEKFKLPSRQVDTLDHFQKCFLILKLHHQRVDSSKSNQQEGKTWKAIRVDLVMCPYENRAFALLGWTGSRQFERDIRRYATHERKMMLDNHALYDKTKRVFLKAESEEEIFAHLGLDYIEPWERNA

`Cc1cn([C@H]2C[C@H](OCN=[N+]=[N-])[C@@H](COP(=O)(O)OP(=O)(O)OP(=O)(O)O)O2)c(=O)[nH]c1=O` [3′-O-azidomethyl-dTTP, reference compound]: the “incorporation by TdT” value in assay [1] (nucleotide 1 μM to 32 μM, 10 minutes of incubation at 37° C. (FIG. 4)) is on record as “unable to incorporate”.
With `CCCCSCCc1cn([C@H]2C[C@H](O)[C@@H](COP(=O)(O)OP(=O)(O)OP(=O)(O)O)O2)c2ncnc(N)c12` [7-[2-(butylsulfanyl)ethyl]-2′-deoxy-7-deazaadenosine 5′-O-triphosphate], in assay [2], the “number of incorporation events by TdT” value is “only a single incorporation event”.
As to `Nc1ncnc2c1c(CCSc1ccccc1)cn2[C@H]1C[C@H](O)[C@@H](COP(=O)(O)OP(=O)(O)OP(=O)(O)O)O1` [7-[2-(phenylsulfanyl)ethyl]-2′-deoxy-7-deazaadenosine 5′-O-triphosphate], the “number of incorporation events by TdT” value in assay [2] was “only a single incorporation event”.
Take `NCC#Cc1cn([C@H]2C[C@H](O)[C@@H](COP(=O)(O)OP(=O)(O)OP(=O)(O)O)O2)c(=O)[nH]c1=O` [propargylamino-dUTP, reference compound]: in assay [1] (Lanes 6-7, FIG. 2A), the “incorporation by TdT compared to that of dTTP” value was “significantly slower”.
For N3-PEG4-dUTP [Compound 1], in assay [1] (setting [4]), the “yield of 22-nt oligo (+1 product)” value is listed as 55%, the “yield of 23-nt oligo (+2 product)” value was determined as 41% and the “yield of 24-nt oligo (+3 product)” value amounted to 4%. Further, in assay [1] (30 minutes of incubation), the “yield of 22-nt oligo (+1 product)” value amounted to 35%, the “yield of 23-nt oligo (+2 product)” value stood at 56% and the “yield of 24-nt oligo (+3 product)” value is 9%.
Regarding N3-PEG8-dUTP [Compound 2], in assay [1] (setting [4]), the “yield of 22-nt oligo (+1 product)” value came to 88%, the “yield of 23-nt oligo (+2 product)” value came out at 12% and the “yield of 24-nt oligo (+3 product)” value is on record as “not observed”. Further, in assay [1] (30 minutes of incubation), the “yield of 23-nt oligo (+2 product)” value was found to be 22% and the “yield of 24-nt oligo (+3 product)” value was “not observed”.
In the case of N3-PEG12-dUTP [Compound 3], in assay [1] (setting [4]), the “yield of 22-nt oligo (+1 product)” value turned out to be 94%. In assay [1] (30 minutes of incubation), the “yield of 23-nt oligo (+2 product)” value is listed as 13% and the “yield of 24-nt oligo (+3 product)” value is given as “not observed”.
For N3-PEG23-nitrobenzyl-dUTP [Compound 5], the “incorporation by TdT” value in assay [1] (nucleotide 20 μM (Lane 10, FIG. 4)) is reported as “could be incorporated”. Also, the “reaction time in which quantitative incorporation was achieved” value in assay [1] (optimized conditions, incorporation time varied from 5 to 9 minutes (FIG. 3)) is not above 7 min. Further, the “product after 2 cycles of incorporation and photocleavage of PEG moiety” value in assay [3] is recorded as “the desired 23-nt oligo”.
On to N3-PEG24-dUTP [Compound 4], for which the “yield of 22-nt oligo (+1 product)” value in assay [1] (setting [4]) is recorded as “quantitative”. In addition, in assay [1] (30 minutes of incubation), the “yield of 22-nt oligo (+1 product)” value came out at 98%, the “yield of 23-nt oligo (+2 product)” value is 2% and the “yield of 24-nt oligo (+3 product)” value is given as “not observed”.

Source of the values: patent US11993801B2, “Base-modified nucleotides as substrates for TdT-based enzymatic nucleic acid synthesis” (Illumina Singapore Pte. Ltd., priority 2020, dated 2024).
